Legend:
Entamoeba histolytica = test: MMV: Primary screening was performed with each compound at a 30 uM final concentration and in triplicate in sealed 96-well polystyrene microtiter plates. Parasite inocula (100 ul) comprising 20000 parasites/ml were added to each well and grown at 37 degrees C in a humidified atmosphere of 5% CO2 for 72 h. Positive controls consisted of metronidazole at 1 mg/ml. The growth of E. histolytica trophozoites in each well was determined microscopically by measuring the diameters of the confluent cells in drug-containing wells relative to those in the nega- tive-control wells.; format: functional, organism-based
Toxoplasma gondii = test: MMV: A total of 100ul of inoculum was added to each well (parasite/cell ratio, ~10:1; final volume, 200 ul). Six hours after inoculation, nonadherent parasites were removed, and 100 ul of complete DMEM (1% penicillin-streptomycin, 3% FBS) supplemented with inhibitors at different concentrations (2-fold serial dilutions starting from 30 uM) was added to all except the negative-control wells. Positive controls, consisting of pyrimethamine (PYR) and sulfadiazine (SDZ) (20-mg/ml stocks in DMSO), were tested at a 2mg/ml final concentration. Each test was performed in triplicate.; format: functional, organism-based; details: 6 h

SMILES | IC50 (Entamoeba histolytica) [µM] | IC50 (Toxoplasma gondii) [µM]
CCOc1c(Cl)cc(CNC(C)C(O)c2ccccc2)cc1OC (stereo not drawn) | > 30 | > 30
CC(C)(C)CC(C)(C)NCC(O)COc1ccc(Cl)cc1Cl (stereo not drawn) | > 30 | > 30
O=C(Nc1ccc(Cl)cc1)N1CCN(c2ccc3nncn3n2)CC1 | > 30 | > 30
COc1ccc(-c2nonc2NC(=O)c2cccc(C)c2)cc1OC | > 30 | > 30
COc1ccc(C(=O)C(CCC(CNC(C)(C)C)C(=O)c2ccc(OC)cc2)CNC(C)(C)C)cc1 (stereo not drawn) | > 30 | 8.23
CCOC(=O)C1=C(c2ccccc2)N=c2sc(=Cc3cc(C)n(-c4ccc(F)cc4)c3C)c(=O)n2C1c1cccc(OC)c1OC (stereo not drawn) | > 30 | > 30
COc1ccc(NC(=O)C2c3ccccc3C(=O)N(CC(C)C)C2c2cccs2)cc1 (stereo not drawn) | > 30 | > 30
CCN(CC)CCn1c(=N)n(CC(O)c2ccc(Cl)c(Cl)c2)c2ccccc21 (stereo not drawn) | > 30 | > 30
CCOc1cccc2sc(N(Cc3cccnc3)C(=O)C3CCCCC3)nc12 | > 30 | > 30
COc1ccc(C(=O)Nc2ccc3nc(N4CCCCC4)cc(C)c3c2)cc1OC | > 30 | 25.7
Nc1ccc(-c2nc3cc(Cc4ccc5[nH]c(-c6ccc(N)cc6)nc5c4)ccc3[nH]2)cc1 | > 30 | > 30
Cc1ccc(C)c(Cn2c(N3CCC(C(=O)NCc4cccs4)CC3)nc3ccccc32)c1 | > 30 | > 30
CCN(CC)CCCNc1nc(-c2ccc(Cl)cc2)nc2ccccc12 | > 30 | > 30
COc1ccc(CN2CCCC(C(=O)c3ccc(C(F)(F)F)cc3)C2)c(O)c1 (stereo not drawn) | > 30 | > 30
CCCCOC(=O)c1ccc(Nc2cc(C)nc3ccc(OC)cc23)cc1 | > 30 | > 30
CCOC(=O)C1=CN(C)C=C(C(=O)OCC)C1c1cc(Br)c(OCC)c(OC)c1 | > 30 | > 30
COc1ccc2c(c1)OC(O)(C(F)(F)C(F)(F)F)CC2=O (stereo not drawn) | > 30 | > 30
Cc1ccc2cc3c(N)c4c(C)ccc(C)c4nc3nc2c1 | > 30 | > 30
COc1ccc(/C=C2/SC(=Nc3ccccc3)NC2=O)cc1 | > 30 | > 30
CCCc1c(C)nc2ccccc2c1O | > 30 | > 30
COc1ccc2nc(C)cc(Nc3ccc(Cl)cc3)c2c1 | > 30 | > 30
O=C(Nc1ccc(F)c(Cl)c1)Nc1ccc(Cl)c(Cl)c1 | > 30 | 26.5

SMILES | IC50 (Entamoeba histolytica) [µM] | IC50 (Toxoplasma gondii) [µM]
CCOc1cc(Cl)c(C(C)NC(=O)c2ccccc2)cc1OCC (stereo not drawn) | > 30 | > 30
O=c1nc(C=Cc2ccc(Br)cc2)oc2ccccc12 | > 30 | > 30
CC(C)(C)CC(C)(C)NCC(O)COc1ccc2c(c1)CCC2 (stereo not drawn) | > 30 | > 30
CC1=C(CC(=O)c2cccc([N+](=O)[O-])c2)C(=O)c2ccccc2C1=O | > 30 | > 30
COc1ccccc1NC1=C(N2CCCCC2)C(=O)c2ccccc2C1=O | > 30 | 4.54
COc1ccc(-c2cc3c(SCC(=O)Nc4cc(C(F)(F)F)ccc4Cl)nccn3n2)cc1 | > 30 | > 30
CCC(C)NCC(O)(c1ccc(Cl)cc1)c1ccc(Cl)cc1 (stereo not drawn) | > 30 | > 30
CC(C)(C)C(=O)Nc1ccc(C(=O)Nc2cccc(-c3nc4ccccc4[nH]3)c2)cc1 | > 30 | > 30
COc1cccc(Nc2nc(N)c3ccccc3n2)c1 | > 30 | 28.1
CN1c2ccccc2N(C)C1c1ccc2c(c1)OCO2 | > 30 | > 30
COc1ccc(Nc2nc(NCc3ccccc3)c3ccccc3n2)cc1 | > 30 | > 30
COc1ccc(Nc2nc(N/N=C/c3ccc(O)cc3)nc(Nc3ccc([N+](=O)[O-])cc3)n2)cc1 | > 30 | > 30
Cc1cc(NCCN2CCCCC2)c2ccc3ccccc3c2n1 | > 30 | > 30
COc1ccccc1C(=O)ON=C(N)Cc1cccc2ccccc12 | > 30 | > 30
CCOc1ccc(CCNC(=O)c2cccs2)cc1OCC | > 30 | > 30
COc1ccc(C2c3ccc4ccccc4c3Oc3ncn(CCCN(C)C)c(=N)c32)cc1 (stereo not drawn) | > 30 | > 30
O=C(NC1CCN(Cc2ccccc2)CC1)c1cc2nc(-c3ccc(Cl)s3)cc(C(F)(F)F)n2n1 | > 30 | > 30
Cc1ccccc1OCCSc1nc2ccc(NC(=O)c3cccs3)cc2s1 | > 30 | > 30
COc1ccc(C(O)(CCC(C)C)C(CN2CCOCC2)c2ccc(Cl)cc2)cc1 (stereo not drawn) | > 30 | > 30
COc1cccc(NC(=O)Cn2c(C)c(C#N)c3ccccc32)c1 | > 30 | > 30
Cc1cc(NC(=O)c2ccc(-c3ccccc3)cc2)no1 | > 30 | 21.1
CCCCCn1c(=N)n(CC(O)COc2cccc(C)c2)c2ccccc21 (stereo not drawn) | > 30 | 17.9

SMILES | IC50 (Entamoeba histolytica) [µM] | IC50 (Toxoplasma gondii) [µM]
Cc1ccc2nc(C)cc(Nc3cccc(C(F)(F)F)c3)c2c1 | > 30 | > 30
Cc1ccc(NC(=O)Nc2cccc(Cl)c2)cc1F | > 30 | > 30
COC(=O)c1ccc(Cl)c2c1C1C=CCC1C(c1cccc3ccccc13)N2 (stereo not drawn) | > 30 | > 30
Brc1ccc(Nc2nc3ccccc3nc2Nc2ccc(Br)cc2)cc1 | > 30 | > 30
CCCn1c(=N)c(C(=O)NC2CCCCC2)cc2c(=O)n3cccc(C)c3nc21 | > 30 | > 30
O=C(Nc1ccc(-c2nc3cc4ccccc4cc3[nH]2)cc1)c1cccc(Br)c1 | > 30 | > 30
OC(CNC1CCCC1)Cn1c2ccccc2c2ccccc21 (stereo not drawn) | > 30 | > 30
O=C(NC(c1ccccc1)c1ccc2cccnc2c1O)c1ccccc1 (stereo not drawn) | > 30 | > 30
COc1ccc(-c2c(C)nn3c(N)c(C#N)cnc23)cc1OC | > 30 | > 30
O=c1cc(NC2CCN(CCCc3ccccc3)CC2)c2cc(Cl)ccc2o1 | > 30 | > 30
Cc1ccc(F)cc1NC(=O)c1cc(Cl)ccc1Nc1ccccc1 | > 30 | > 30
OCCNc1nc(Nc2ccc(Cl)c(Cl)c2)nc2ccccc12 | > 30 | > 30
COc1ccc(CN2CCN(Cc3ccccc3)CC2)c(O)c1 | > 30 | > 30
CCOc1ccc(CN2CCN(CC(O)COc3ccc(OCC(O)CN4CCN(Cc5ccc(OCC)cc5)CC4)cc3)CC2)cc1 (stereo not drawn) | > 30 | > 30
CCCN(CCC)CC(O)COc1ccccc1C(=O)Nc1ccccc1 (stereo not drawn) | > 30 | > 30
O=C(NC1CCN(Cc2ccccc2)CC1)c1cc(-c2ccncc2)nc2ccc(Cl)cc12 | > 30 | > 30
CCC(c1ccccc1)c1nn2c(-c3cccs3)nnc2s1 (stereo not drawn) | > 30 | > 30
CCN(CC)c1ccc(NC(=O)c2cccs2)cc1 | > 30 | > 30
CN1CCN(c2nc(Nc3ccc(O)cc3)nc3ccccc23)CC1 | > 30 | > 30
Cc1cc(N2CCCC2)nc(Nc2ccc(NC(=O)CCc3ccccc3)cc2)n1 | > 30 | > 30

— ChEMBL document CHEMBL3301448, “MMV Malaria Box screening against Toxoplasma gondii and Entamoeba histolytica”
